# “Also recorded” adds a separate entry of the source.
# Key:
# [1] = derivable from literature; cited from earlier work
# [2] = system: porcine pancreatic lipase, PPL (crude extract); assay: OPTS assay: enzymatic hydrolysis of OPTS by PPL; type: biochemical
# Procedure: An aqueous solution of commercially purchased porcine pancreatic lipase, PPL, was prepared (Sigma-Aldrich, US; 100-500 Units/mg protein). According to the manufacturer, this powder mainly contains triacylglycerol lipase, but since it is a homogenised powder from freeze-dried porcine pancreas (crude extract), it is likely to further contain other carboxylesterases and lipases. These enzymes hydrolyse fatty acid esters and this extract was therefore selected for functional tests.
# To record the reaction kinetics of the substrate OPTS with PPL, an aqueous 10 mg/mL PPL solution was prepared by adding 10 mg PPL to 1 mL H2O. The suspension was vortexed for 2 min and centrifuged at 14,000×g for 5 min before the supernatant was removed.
# A reaction mixture of 75 μL AMT buffer (pH=7), 165 μL H2O and 30 μL of an aqueous 10 mg*mL-1 PPL solution was started with the addition of 30 μL of a 250 μM OPTS solution. The increase in fluorescence was recorded over 30 min with 15 s measuring intervals (n=2). As control (blank) served a preparation without PPL (only with H2O). […] The calculated reaction rate is 2.89±0.08*10-5 units (μmol*min-1). […]
# Further inhibition of the non-ionic detergent polysorbate 20 (Tween 20) was tested. […] No inhibition was observed until 50 μg/ml at pH 7.0, but higher concentrations reduced the fluorescence signal (FIG. 5B). […]
# [3] = system: contaminating host cell proteins with hydrolytic (lipase) activity in antibody solutions; assay: 4-MUD assay on antibody preparations (drug substance samples); type: biochemical, CHO K1 or DG44 cells; settings: all 9 antibody samples; for effect of inhibitor on hydrolytic activity in the 9 antibody samples, 4-MUD assay: orlistat 10 μM, PMSF 1 mM, EDTA 10 mM
# Excerpt: In order to be able to determine the enzymatic activity, a substrate, 1-octanoyloxy-pyrene-3,6,8-trisulfonic acid trisodium salt (OPTS), was chosen. Its hydrolytic product, 1-hydroxypyrene-3,6,8-trisulfonic acid trisodium salt (HPTS), can be detected by fluorescence spectroscopy. The change in the fluorescence signal over time is directly related to the change in the concentration of free fluorophore. The conversion was made possible by setting up a calibration curve with a subsequent linear fit (R^2≥0.99). The experiments of the kinetics measurements with the OPTS/4-MUD substrates assay were performed in duplicates. The reaction mixture without the protein of interest, which served as the respective control, was subtracted from the protein-containing batch. The buffer used for OPTS measurements (hydrophilic substrate) contained 0.3 M HOAc, 0.3 M MES, 0.6 M TRIS and 0.6 M NaCl (4×AMT buffer; acetate, MES, TRIS). For 4-MUD substrate measurements (lipophilic substrate) 0.04 M CHAPS was added in addition. The buffer (AMT) was prepared in four-fold concentration (4×AMT) and was added at 25% (v/v) to the reaction mix. All measurements were carried out in multiwell plates with a preparation volume of 300 μL (75 μL 4×AMT buffer, 30 μL substrate, 75 μL enzyme-containing solution, x μL additive, 300 μL ad. H2O) Unless otherwise stated, all fluorescence spectroscopic measurements were performed using 96-well, clear-bottom, non-binding plates (Greiner, Austria) on a SpectraMax M3 PlateReader (Molecular Device, USA) and recorded using SoftMax Pro 7.0.3 software (Molecular Device, USA). The OPTS assay measurements were typically taken at 25° C., λex=403 nm and λem=512 nm and the 4-MUD assay measurements were taken at 25° C., λex=330 nm and λem=450 nm. For evaluation, the detected fluorescence signal for a reaction mix without protein of interest (control) was subtracted from the reaction mix with protein of interest (e.g. DS). Hydrolysis of the substrate has been measured by detecting the fluorescence intensity of the released chromophore (4-MU or HPTS) immediately following mixing in real-time for a few minutes up to 5 hours depending on fluorescence intensity. The changes in the fluorescence signal over time were subsequently converted to hydrolytic activity using previously established calibration curves with a linear fit (R^2≥0.99).
# The target concentration of OPTS was 25 μM and the target concentration of 4-MUD was 30 μM. […]
# (§1) To generate pH profiles of the protein solutions, kinetic measurements were carried out as described above at the indicated pH value. The added AMT buffer was adjusted to the pH indicated in a range of pH 4-8 (0.5 steps) and the kinetics were recorded for each pH value.
# [4] = system: contaminating host cell proteins with hydrolase (carboxylesterase) activity in antibody solutions; assay: OPTS assay on antibody preparations (drug substance samples); type: biochemical, CHO K1 or DG44 cells; settings: orlistat 10 μM, PMSF 1 mM, EDTA 10 mM; all 9 antibody samples
# Excerpt: In order to be able to determine the enzymatic activity, a substrate, 1-octanoyloxy-pyrene-3,6,8-trisulfonic acid trisodium salt (OPTS), was chosen. Its hydrolytic product, 1-hydroxypyrene-3,6,8-trisulfonic acid trisodium salt (HPTS), can be detected by fluorescence spectroscopy. The change in the fluorescence signal over time is directly related to the change in the concentration of free fluorophore. The conversion was made possible by setting up a calibration curve with a subsequent linear fit (R^2≥0.99). The experiments of the kinetics measurements with the OPTS/4-MUD substrates assay were performed in duplicates. The reaction mixture without the protein of interest, which served as the respective control, was subtracted from the protein-containing batch. The buffer used for OPTS measurements (hydrophilic substrate) contained 0.3 M HOAc, 0.3 M MES, 0.6 M TRIS and 0.6 M NaCl (4×AMT buffer; acetate, MES, TRIS). For 4-MUD substrate measurements (lipophilic substrate) 0.04 M CHAPS was added in addition. […] All measurements were carried out in multiwell plates with a preparation volume of 300 μL (75 μL 4×AMT buffer, 30 μL substrate, 75 μL enzyme-containing solution, x μL additive, 300 μL ad. H2O) Unless otherwise stated, all fluorescence spectroscopic measurements were performed using 96-well, clear-bottom, non-binding plates (Greiner, Austria) on a SpectraMax M3 PlateReader (Molecular Device, USA) and recorded using SoftMax Pro 7.0.3 software (Molecular Device, USA). […] For evaluation, the detected fluorescence signal for a reaction mix without protein of interest (control) was subtracted from the reaction mix with protein of interest (e.g. DS). Hydrolysis of the substrate has been measured by detecting the fluorescence intensity of the released chromophore (4-MU or HPTS) immediately following mixing in real-time for a few minutes up to 5 hours depending on fluorescence intensity. The changes in the fluorescence signal over time were subsequently converted to hydrolytic activity using previously established calibration curves with a linear fit (R^2≥0.99). […]
# [5] = system: purified commercially available lipase (lysosomal lipase); assay: 4-MUD assay on a purified commercially available lipase; type: biochemical; settings: 10 μM orlistat, 1 mM PMSF, 10 mM EDTA; pH 5.5
# Procedure: The target concentration of OPTS was 25 μM and the target concentration of 4-MUD was 30 μM. For preparing a master mix, 4×AMT buffer was mixed with the appropriate volume of H2O in a Falcon tube. The dialysed antibody (Ab) preparation samples (drug substance) or control solutions (75 μl) were transferred to 96 well plates. Optional inhibitors (10 μM orlistat, 1 mM PMSF and 10 mM EDTA) were added to the master mix comprising 4×AMT buffer and water and substrate (3 μl/sample 3 mM 4-MUD in DMSO or […] 250 μM OPTS in H2O, aliquoted and frozen). The 4-MUD substrate was stored at a concentrated stock solution comprising 3 mM 4-methylumbelliferyl decanoate (4-MUD; FM25973, Carbosynth) in DMSO resulting in a 100× stock solution for use comprising […] in DMSO. The 250 μM OPTS stock solution was prepared in H2O, aliquoted and frozen until use. […] The reaction was then started by adding the master mix (reaction solution) to the protein solution or control solution, respectively. The measurement was started immediately. The measuring time was 30 min and the measuring intervals 15 s. Stock solutions of the inhibitors were used as follows: 300 μM orlistat (Sigma-Aldrich, USA) in DMSO, 100 mM PMSF (Roth, Germany) in isopropanol and 500 mM EDTA (Sigma-Aldrich, USA) in H2O.
# as §1
# Further, a purified commercially available lipase with unknown substrate specificity was analysed using the 4-MUD and OPTS assay. First, hydrolysis of both soluble (OPTS) and hydrophobic (4-MUD) carboxyl esters, as well as the influence of orlistat, PMSF and EDTA on the hydrolytic activity of the lipase were investigated.
# Furthermore, the lipase was tested for its pH dependence in the OPTS and 4-MUD substrate assays. For this purpose, the hydrolytic activity was examined at pH=4-8.
SMILES,CMC [1],"effect of inhibitor on hydrolytic activity in the 9 antibody samples, 4-MUD assay [3]","effect of inhibitor on hydrolytic activity in the 9 antibody samples, OPTS assay [4]","influence of inhibitors on hydrolytic activity of the lipase, 4-MUD substrate [5]",also measured
"C[C@H](CCC(=O)NCCC[N+](C)(C)CCCS(=O)(=O)[O-])[C@H]1CC[C@H]2[C@@H]3[C@H](O)C[C@@H]4C[C@H](O)CC[C@]4(C)[C@H]3C[C@H](O)[C@]12C [CHAPS, 3-[(3-cholamidopropyl)dimethylammonio]-1-propanesulfonate]",about 6 mM,,,,"activity in the presence of 10 mM CHAPS ([2]; 1 mg*mL-1 PPL, 25 μM OPTS, AMT pH 7, 10 mM CHAPS): 6.16*10^−7 units"
"C[C@H](CCC(=O)NCCC[N+](C)(C)CC(O)CS(=O)(=O)[O-])[C@H]1CC[C@H]2[C@@H]3[C@H](O)C[C@@H]4C[C@H](O)CC[C@]4(C)[C@H]3C[C@H](O)[C@]12C (stereo partly drawn) [CHAPSO, 3-([3-Cholamidopropyl)dimethylammonio]-2-hydroxy-1-propanesulfonate]",about 8 mM,,,,
O=C(O)CN(CCN(CC(=O)O)CC(=O)O)CC(=O)O [EDTA],,hardly any inhibition; also recorded: no inhibition,"Neither orlistat, nor PMSF or EDTA significantly reduced; also recorded: no inhibition",only minor effects,
O=S(=O)(F)Cc1ccccc1 [PMSF],,sight inhibition,"Neither orlistat, nor PMSF or EDTA significantly reduced",only minor effects,
"CCCCCCCCCCCC(=O)OCCOCCOCCOCCOCCOCCOCCOCCOCCOCCOCCOCCOCCOCCOCCOCCOCCOCCOCCOCCOCC(OCCOCCOCCOCCOCCOCCOCCOCCOCCOCCOCCOCCOCCOCCOCCOCCOCCOCCOCCOCCO)C1OCC(OCCOCCOCCOCCOCCOCCOCCOCCOCCOCCOCCOCCOCCOCCOCCOCCOCCOCCOCCOCCO)C1OCCOCCOCCOCCOCCOCCOCCOCCOCCOCCOCCOCCOCCOCCOCCOCCOCCOCCOCCOCCO (stereo not drawn) [Polysorbate 20, polyoxyethylene (20) sorbitan monolaurate]",,,,,"concentration until which no inhibition was observed ([2]; PPL, pH 7.0, target concentrations 200 μg/mL to 0.098 μg/mL tested): ≤ 50 µg/mL"
"CCCCCCCCCCCC[N+](C)(C)CCCS(=O)(=O)[O-] [Zwittergent 3-12, n-Dodecyl-N,N-dimethyl-3-ammonio-1-propanesulfonate]",2 to 4 mM,,,,
CCCCCCCCCCC[C@@H](C[C@@H]1OC(=O)[C@H]1CCCCCC)OC(=O)[C@H](CC(C)C)NC=O [orlistat],,pronounced inhibition; also recorded: strong inhibition,"Neither orlistat, nor PMSF or EDTA significantly reduced",almost completely inhibited,"residual activities with orlistat ([3]; 10 μM orlistat, % of hydrolysis activity without inhibitor): 18-21%"

# Source: patent US20250207175A1, “METHOD FOR DETECTING CONTAMINATING CARBOXYLESTERASE ACTIVITY” (Boehringer Ingelheim International GmbH, priority 2022, published 2025)
